Measurements published in patent US8114862B2, “TGR5 modulators and methods of use thereof” (Intercept Pharmaceuticals, Inc., priority 2008, dated 2012).

Columns and labels:
bovine serum albumin = bovine serum albumin (Bos taurus, UniProt P02769); assay: Albumin binding by equilibrium dialysis; assay type: in vitro ADME; conditions: 100 μM BA in 5% bovine serum albumin-saline, pH 7.2
Experimental: The extent of albumin binding was evaluated by equilibrium dialysis at a fixed BA-albumin ratio. BA was dissolved at a concentration of 100 μM in 5% bovine serum albumin-saline solution (pH 7.2) and left to stand for 24 h at 25° C. Two milliliters of this solution was dialyzed in cellulose sacs having a molecular weight cut-off of 12-14,000 against 25 ml of saline solution. The system was equilibrated by mechanical gently shaking for 72 h at 25° C. BA concentrations of the dialyzed solution (corresponding to the free unbound fraction) and of the starting solution were determined with HPLC-ESI-MS/MS in the same conditions of the previous analysis.
The percent of albumin binding was calculate from the initial BA concentration and from the unbound concentration in the dialyzed fraction.

CAR = molecular target: T1, CAR (Homo sapiens, UniProt Q14994); assay: CAR coactivator recruitment (Lanthascreen); assay type: biochemical; conditions: read-out: CAR Activation EC50
T1 construct: purchased Invitrogen
T1 sequence (Q14994 109-352 limits assumed): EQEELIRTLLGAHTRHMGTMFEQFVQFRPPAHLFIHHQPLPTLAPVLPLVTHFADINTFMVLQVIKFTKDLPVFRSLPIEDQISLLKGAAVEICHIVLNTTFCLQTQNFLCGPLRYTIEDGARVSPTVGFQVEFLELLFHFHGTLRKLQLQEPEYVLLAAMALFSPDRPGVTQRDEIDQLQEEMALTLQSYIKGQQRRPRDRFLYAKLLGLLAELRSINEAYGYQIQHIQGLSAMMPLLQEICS
Experimental: CAR: Coactivator Recruitment (Lanthascreen)
Lanthascreen assay (Invitrogen) was used for nulear receptor selectivity assay. The kit uses a terbium-labeled anti-GST antibody, a fluorescein-labeled coactivator peptide, and a NR ligand-binding domain that is tagged with glutathione-S-transferase (GST) in a homogenous mix-and-read assay format. […] Following 1 hour incubation in the dark, TR-FRET measurements were made in the Envision. […] The data was analyzed using GraphPad Prism using the sigmoidal curve equation with variable slope to obtain EC50 values.

STC-1 cells = assay: STC-1 cell experiments (Cox activity, oxygen consumption, ATP/ADP, GLP-1 release); assay type: cell-based, mouse
NCI-H716 cells = assay: NCI-H716 cell experiments (ATP, intracellular calcium, GLP-1 release); assay type: cell-based, human
HF-fed C57BL/6J mice = assay: Dietary intervention in HF-fed C57BL/6J mice (Example 20); assay type: in vivo, mouse
Experimental: Age-matched male mice were used for all experiments. Genetically engineered mouse models (GEMMs), i.e., TGR5-Tg and TGR5^−/− mice, were generated as described in the Supplemental Data. […] Protoc. Mol. Chapter. […] Protoc. Mol. Biol. Chapter 29, Unit 29A, 22). […] Plasma GLP-1 levels were measured by ELISA (Millipore) on blood collected by retro-orbital puncture.

primary brown adipocytes = assay: O2 consumption in primary brown adipocytes; assay type: cell-based, mouse; conditions: treated for 12 hr, 3 μM
DIO and db/db mice = assay: Glucose homeostasis and insulin sensitivity in DIO and db/db mice (Example 21); assay type: in vivo, mouse
Experimental: Animals were housed and bred according to standardized procedures (Argmann and Auwerx, 2006b). Age-matched male mice were used for all experiments. Genetically engineered mouse models (GEMMs), i.e., TGR5-Tg and TGR5^−/− mice, were generated as described in the Supplemental Data. […]; Research Diets) for at least 8 weeks, as mentioned in the text and figure legends. […] Mouse phenotyping experiments were performed according to EMPRESS protocols (see, for example, Empress (European Mouse Phenotyping Resource of Standardised Screening) website) and were aimed to assess food and water intake, body composition (Argmann et al., 2006a, Curr. Protoc. Mol. Biol. Chapter 29, Unit 29A, 23), energy expenditure (Argmann et al., 2006a, Curr. Protoc. Mol. Biol. Chapter 29, Unit 29A, 23), glucose and lipid homeostasis (Argmann et al., 2006b, Curr. Protoc. Mol. Biol. Chapter 29, Unit 29A, 22); Heikkinen et al., 2007, Curr. Protoc. Mol. Chapter. 29, Unit 29B, 23; Mataki et al., 2007, Mol. Cell. Biol. 27, 8330), and plasma biochemistry (Argmann and Auwerx, 2006a, Curr. Protoc. Mol. Biol. Chapter 29, Unit 29A, 22). Tissues and blood were collected and processed for histopathology, blood chemistry, and gene expression according to standardized procedures (Argmann and Auwerx, 2006a; Feige et al., 2008b; Mark et al., 2007; Watanabe et al., 2006). Hyperinsulinemic euglycemic clamp studies were performed as described (Feige et al., 2008b), with minor modifications including a change in the initial insulin bolus (30 mU/kg) and insulin infusion rate (10 mU/min/kg). Plasma GLP-1 levels were measured by ELISA (Millipore) on blood collected by retro-orbital puncture. […].
To further characterize the impact of compound Ih3e on glucose homeostasis and insulin sensitivity, a hyperinsulinemic euglycemic glucose clamp was performed on these DIO mice. […]. These effects correlated with normalization in the expression of key genes involved in hepatic glucose homeostasis (FIG. 21G).

[1] = Bile flow in bile fistula rat after femoral infusion (Example 22); assay type: in vivo
in vitro = conditions: human, HepG2 cells

Sequence of bovine serum albumin (P02769 25-607): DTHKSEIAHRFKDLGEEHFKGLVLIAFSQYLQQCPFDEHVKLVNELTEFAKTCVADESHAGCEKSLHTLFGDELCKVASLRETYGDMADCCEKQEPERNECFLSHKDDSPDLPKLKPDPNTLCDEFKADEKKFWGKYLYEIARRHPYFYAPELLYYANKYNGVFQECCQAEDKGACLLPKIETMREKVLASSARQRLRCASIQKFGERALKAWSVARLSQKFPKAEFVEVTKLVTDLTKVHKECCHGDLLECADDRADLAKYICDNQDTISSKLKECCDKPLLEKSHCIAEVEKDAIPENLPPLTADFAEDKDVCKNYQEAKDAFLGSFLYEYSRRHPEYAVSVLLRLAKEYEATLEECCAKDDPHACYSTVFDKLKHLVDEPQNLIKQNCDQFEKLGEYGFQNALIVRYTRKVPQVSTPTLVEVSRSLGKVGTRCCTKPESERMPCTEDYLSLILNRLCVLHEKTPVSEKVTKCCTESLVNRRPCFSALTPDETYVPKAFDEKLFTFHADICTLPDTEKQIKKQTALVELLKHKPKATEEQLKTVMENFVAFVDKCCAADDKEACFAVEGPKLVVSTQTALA

Compound: CC[C@H]1[C@@H](O)[C@@H]2[C@H](C[C@H](O)[C@]3(C)[C@@H]([C@H](C)C[C@H](C)C(=O)O)CC[C@@H]23)[C@@]2(C)CC[C@@H](O)C[C@@H]12 [Ih3e, 6α-ethyl-(23S)-methyl-3α,7α,12α trihydroxy-5β-cholan-24-oic acid]
- Albumin Binding (bovine serum albumin): 62%
- EC50 (CAR): > 250 µM
- Cox activity (STC-1 cells): cAMP-dependent increase in Cox activity
- cellular oxygen consumption (STC-1 cells): increase in cellular oxygen consumption
- impact on GLP-1 release (STC-1 cells; prevented by RNA interference or MDL-12-330A): enhanced by TGR5 overexpression
- ATP production (NCI-H716 cells; NCI-H716): increased ATP production in a cAMP-dependent manner
- calcium influx (NCI-H716 cells; NCI-H716): robustly increased calcium influx
- GLP-1 release (NCI-H716 cells; NCI-H716, with glucose): rise in GLP-1 release
- expression level of classical target genes of FXR in the liver (CYP7A1, BSEP) (HF-fed C57BL/6J mice; 30 mg/kg/day): complete absence of changes
- plasma levels (HF-fed C57BL/6J mice; 30 mg/kg/day admixed with diet): within the range of those of CA and 3-muricholic acid
- increase in liver and fat pad mass (HF-fed C57BL/6J mice; HF-fed): attenuated
- plasma triglycerides and nonesterified fatty acids (NEFAs) (HF-fed C57BL/6J mice; HF-fed mice): significant drop
- fat mass (HF-fed C57BL/6J mice; HF-fed, relative to HF-fed controls): sharp reduction in fat mass
- liver fibrosis (HF-fed C57BL/6J mice; Sirius red staining): absence of liver fibrosis
- attenuation of body weight gain (HF-fed C57BL/6J mice; after 10 weeks of treatment, relative to HF-fed controls): about 15%
- plasma levels of liver enzymes (HF-fed C57BL/6J mice; compared to HF-fed controls): markedly reduced
- respiratory quotient (HF-fed C57BL/6J mice; dark period): significantly reduced
- energy expenditure (O2 consumption and CO2 production) (HF-fed C57BL/6J mice; indirect calorimetry): enhanced energy expenditure
- gene expression profiling of BAT (HF-fed C57BL/6J mice; mouse, in vivo): increase of several mitochondrial genes involved in energy expenditure
- liver steatosis (HF-fed C57BL/6J mice; oil red O staining, liver lipid content): reduction in liver steatosis
- O2 consumption after FCCP (primary brown adipocytes): significantly more pronounced
- fasting glucose and insulin levels (DIO and db/db mice; DIO and db/db mice): decreased
- glucose-stimulated insulin secretion profile (DIO and db/db mice; DIO and db/db mice): improvement
- glucose tolerance after an oral challenge with glucose (DIO and db/db mice; DIO and db/db mice, 30 mkd): robustly improved glucose tolerance
- glucose infusion rate required to maintain euglycemia (DIO and db/db mice; DIO mice, hyperinsulinemic euglycemic clamp): virtually identical to that observed in CD-fed control mice
- body weight (DIO and db/db mice; HF-fed C57BL6/J mice, 30 mg/kg/d for 8 weeks): 32.26 ± 0.95 g
- hepatic glucose production, glucose disposal rate, suppression of glucose production by insulin (DIO and db/db mice; HF-fed mice, clamp): normalized these parameters to the values observed in CD-fed mice
- insulin-stimulated 14C-deoxyglucose uptake (DIO and db/db mice; clamp): reduced insulin resistance in liver and muscle
- expression of key genes involved in hepatic glucose homeostasis (DIO and db/db mice; mouse, in vivo): normalization
- duration of increased bile flow after the end of the infusion period ([1]; iv infusion): at least 2 hours
- bile flow rate ([1]; iv infusion 1 μmol/min/kg for 1 h): significantly increased the bile flow rate
- EC50 at 4 h (in vitro): > 1 mM
